Measured values: publication PMC8827060, “Identification and characterization of L- and D-lactate-inducible systems from Escherichia coli MG1655, Cupriavidus necator H16 and Pseudomonas species” (Scientific Reports, 2022)

Test system: T1, CnGntR
T1 construct: gene gntR; full-length TR gene with PH16_RS19190-mRFP1 reporter on plasmid pEA007; host C. necator H16; regulator of cluster H16_RS19175-H16_RS19195, its own locus tag inferred
Assay: mRFP1 reporter dose-response in cells, Hill fit
Assay type: cell-based, Cupriavidus necator
Conditions: inducer of transcriptional regulator; half-maximal reporter output; host C. necator H16; minimal medium with 0.4% gluconate, 30 °C, 6 h; Hill coefficient 1.19; read-out: Km
From the text: mRFP1 reporter dose-response in cells, Hill fit on CnGntR

EC50: 670 ± 210 µM
SMILES: C[C@H](O)C(=O)O [L-lactate]
